Laboratory results published in patent US9943500B2, “Methods of treating topical microbial infections” (LUODA PHARMA PTY LIMITED, priority 2013, dated 2018).

How the values were obtained:
[1] = system: methicillin sensitive and methicillin-resistant staphylococci; experiment: Minimum inhibitory concentration assay, 42 Staphylococcus isolates (Example 1); format: cell-based
Protocol: Forty-two isolates of Staphylococcus of varying species and strain type were collected from isolate collections. Biochemical testing including coagulase, latex agglutination testing for protein A, Vogues-Proskauer tests and resistance to polymyxin B were used to identify the species of Staphylococcus. All isolates were also screened for resistance to various antimicrobials commonly used for the treatment of skin infections. This was performed using the disk diffusion method and resistance standards as outlined by the CLSI. The following antimicrobials were used: amoxicillin-clavulanic acid (30 μg), cephalothin (30 μg), clindamycin (2 μg), enrofloxacin (5 μg), erythromycin (15 μg), gentamicin (10 μg), imipenem (10 μg), oxacillin (1 μg), penicillin G (10 units), tetracycline (30 μg), 1:19 trimethoprim-sulfamethoxazole (25 μg) and vancomycin (30 μg).
Minimum inhibitory concentration tests were performed according to CLSI Standards (CLSI 2012). 90 μL of one of the test compound solutions, or ampicillin, was added to the end column of a 96 well plate that contained 90 μL of CAMHB in each well. The solutions were then serially diluted across the row, leaving 2 columns for positive and negative controls (FIG. 2). A bacterial suspension was prepared by adding fresh colonies obtained from an overnight culture on Sheep Blood Agar (SBA) to a 9.1 g/L saline solution. This suspension was adjusted to a concentration of between 4×10^8 and 5×10^8 CFU/mL. […] 1 mL of this suspension was added to 9 mL of saline before being added to all wells, excluding the negative control wells, in 10 μL volumes giving a final concentration of between 4×10^5 and 5×10^5 CFU/mL in each well. The tests were then incubated for 24 hours at 37° C. and then assessed both visually and using OD readings from a microplate reader at a wavelength of 600 nm. These tests were performed in duplicate but repeated if discrepancies were observed.
The minimum inhibitory concentration (MIC) was determined to be the lowest concentration of antibiotic that prevented growth of bacteria both visually and using OD readings. Direct statistical comparisons between the test compounds and ampicillin could not be performed in light of confidential information restrictions, such as restrictions on disclosure of information relating to the compound structure, such as molecular weight. Instead, MIC values were collated and used to determine the lowest concentration of each compound that was effective against 50% and 90% of isolates, referred to as the MIC50 and MIC90 respectively. These values as well as the range of MIC values were then used for direct comparisons between test compounds and for general comparisons with ampicillin.

red blood cells = experiment: Eukaryotic cell toxicity testing, erythrocyte haemolysis; format: cell-based; details: 2% blood cell solution, one hour at 37° C.
Protocol: Erythrocyte haemolysis was used in order to test the toxicity of all five compounds to eukaryotic cells. Blood samples were washed using 9.1 g/L saline solution and centrifuged at 2500 rpm for 10 minutes. This process was repeated until cellular debris and partially lysed cells were removed from solution. 2 mL of the remaining blood cells were suspended in 98 mL of 9.1 g/L saline solution to produce a 2% blood cell solution, which was dispensed in 90 μL volumes into the wells of a 96 well plate. The compound solutions as well as chloramphenicol were prepared from stock solution to a concentration of 256 μg/mL (as described above). Chloramphenicol was used as a negative control for erythrocyte lysis while a ready to use solution of amphotericin B was used as a positive control. 90 μL of the compounds and controls were added to the final well in different rows. These compounds were serially diluted across the row in order to test the different concentrations of antimicrobials. Wells containing only 2% blood solution were also used to assess variation between readings from different columns on the 96 well plates. These tests were incubated at 37° C. for one hour and then assessed for lysis both visually and using a microplate reader to measure optical density at 600 nm wavelengths. Each test was performed in duplicate and then repeated in quadruplicate in order to ensure accuracy.

[2] = system: ATCC 49775 reference strain; experiment: Macrodilution time-kill assay (viable counts); details: 24 hours; all concentrations tested
Protocol: Due to the detection limit of the OD measurements, the time-kill assays were also performed in macrodilution. In 15 mL tubes, 9 mL volumes of the test compounds in CAMHB were prepared at one, four and eight times the MIC concentration and 9 mL volumes of ampicillin were prepared in CAMHB at one and four times the MIC. 1 mL of a 4 to 5×10^6 bacterial suspension (as prepared for MIC testing) was added to each of the tubes as well as a growth control tube containing only 9 mL of CAMHB. These tubes were incubated at 37° C. in an orbital shaker rotating at 100 rpm for 24 hours. At 0, 1, 4, 8, 12 and 24 hours after addition of the bacteria, 100 μL samples were removed from each tube and serial diluted in 9.1 g/L saline solution. The dilutions were then plated in duplicate onto plate count agar and incubated for 24 hours at 37° C. After incubation, viable counts were obtained from the number of colonies visible on the agar and these were used to calculate the number of CFU/mL at each time point. For the macrodilution time-kill analysis, only the ATCC 49775 reference strain and MRSA 9 were assessed in order to further investigate the antibacterial activity against methicillin-resistant strains. These macrodilution time-kill assays were independently repeated and bactericidal activity was defined as a ≥3 log decrease in the number of CFU/mL.

[3] = system: ATCC 49775 reference strain; experiment: Microdilution time-kill assay (optical density); details: 48 hour period; one, four and eight times the MIC
Protocol: Time-kill assays were performed according to the M26-A guidelines of the CLSI, with modifications. The test compounds and ampicillin were serial diluted in CAMHB across the rows of a 96 well plate and a bacterial suspension was prepared and added in the same manner as the MIC testing. The 96 well plates were then incubated at 37° C. for 48 hours being removed at specific time points and OD for the positive control wells as well as one, four and eight times the MIC of the compound specific to the strain being tested were assessed using a spectrophotometer at a wavelength of 600 nm. The time points assessed were 0, 1, 2, 4, 8, 12, 24 and 48 hours after the addition of the bacterial suspension to the wells. Each test compound was tested in triplicate while ampicillin was tested in duplicate and this test was independently repeated. […] One strain from each of the categories of Staphylococcus in the isolate collection (methicillin-sensitive, methicillin resistant and coagulase negative) were selected as well as the ATCC reference strain for comparison. These strains were strains MSS 1, MSS 11, MRSA 9 and the ATCC 49775 reference strain.

SMILES: CC[C@@H](C(=O)[C@@H](C)[C@@H](O)[C@H](C)CCc1ccc(C)c(O)c1C(=O)O)[C@H]1O[C@](CC)([C@H]2CC[C@](O)(CC)[C@H](C)O2)C[C@@H]1C [LP 1369, Lasalocid]
- MIC50 and MIC90 values compared with ampicillin [1]: considerably lower than ampicillin
- concentration at which lysis was most visually evident (red blood cells): 64000 ng/mL
- concentration range in which some lysis of cells was observed (red blood cells): 32000 to 128000 ng/mL
- decrease in the number of viable bacteria [2]: < 3 log10
- growth (optical density) compared to growth control [3]: prevented the growth
